Measured values published in publication PMC5218480 (PLoS ONE, 2017).

System: MV-4-11 cells
Experiment: Gene expression microarray analysis (Affymetrix PrimeView) and GSEA
Type: cell-based, human
Parameters: RFU PODN (11730768_x_at) / Fold change /veh PODN (11730768_x_at) / RFU LINC00158 (11744669_a_at) / Fold change /veh LINC00158 (11744669_a_at) / RFU DUSP10 (11751237_a_at) / Fold change /veh DUSP10 (11751237_a_at) / RFU ID3 (11757404_x_at) / Fold change /veh ID3 (11757404_x_at) / RFU PLEKHG5 (11737974_s_at) / Fold change /veh PLEKHG5 (11737974_s_at) / RFU LRRC4B (11730491_at) / Fold change /veh LRRC4B (11730491_at) / RFU GIMAP4 (11747438_a_at) / Fold change /veh GIMAP4 (11747438_a_at) / RFU KRT8 (11758183_x_at) / Fold change /veh KRT8 (11758183_x_at) / RFU CNN1 (11734310_a_at) / Fold change /veh CNN1 (11734310_a_at) / RFU VPS37D (11726825_at) / Fold change /veh VPS37D (11726825_at) / RFU C10orf10 (11716522_x_at) / Fold change /veh C10orf10 (11716522_x_at) / RFU KIR2DL2 /// KIR2DL4 /// KIR2DL5A /// KIR2DL5B /// KIR2DS1 /// KIR2DS2 /// KIR2DS3 /// KIR2DS4 /// KIR3DL3 /// KIR3DL3 /// KIR3DS1 (11738374_at) / Fold change /veh KIR2DL2 /// KIR2DL4 /// KIR2DL5A /// KIR2DL5B /// KIR2DS1 /// KIR2DS2 /// KIR2DS3 /// KIR2DS4 /// KIR3DL3 /// KIR3DL3 /// KIR3DS1 (11738374_at) / RFU C1QL1 (11718748_at) / Fold change /veh C1QL1 (11718748_at) / RFU TMPRSS4 (11747572_a_at) / Fold change /veh TMPRSS4 (11747572_a_at) / RFU HAMP (11756126_x_at) / Fold change /veh HAMP (11756126_x_at) / RFU RNFT2 (11725882_a_at) / Fold change /veh RNFT2 (11725882_a_at) / RFU NR4A2 (11747474_a_at) / Fold change /veh NR4A2 (11747474_a_at) / RFU ABCC12 (11746883_a_at) / Fold change /veh ABCC12 (11746883_a_at) / RFU TMEM136 (11760407_x_at) / Fold change /veh TMEM136 (11760407_x_at) / RFU CLDN22 /// WWC2 (11732394_at) / Fold change /veh CLDN22 /// WWC2 (11732394_at) / RFU HLA-DPB1 (11760878_x_at) / Fold change /veh HLA-DPB1 (11760878_x_at) / RFU SPINT1 (11716480_a_at) / Fold change /veh SPINT1 (11716480_a_at) / RFU GAP43 (11754022_s_at) / Fold change /veh GAP43 (11754022_s_at) / RFU A4GNT (11735810_at) / Fold change /veh A4GNT (11735810_at) / RFU PRB3 (11715151_x_at) / Fold change /veh PRB3 (11715151_x_at) / RFU TUBB4B (11761932_at) / Fold change /veh TUBB4B (11761932_at) / RFU CAPN14 (11732068_a_at) / Fold change /veh CAPN14 (11732068_a_at) / RFU TMCC2 (11721928_a_at) / Fold change /veh TMCC2 (11721928_a_at) / RFU IRGQ (11745062_a_at) / Fold change /veh IRGQ (11745062_a_at) / RFU FAM174B (11720279_a_at) / Fold change /veh FAM174B (11720279_a_at) / RFU TMPRSS4 (11748680_a_at) / Fold change /veh TMPRSS4 (11748680_a_at) / RFU FAM212B (11763350_a_at) / Fold change /veh FAM212B (11763350_a_at) / RFU PLEKHG5 (11743358_a_at) / Fold change /veh PLEKHG5 (11743358_a_at) / RFU ZSCAN30 (11745921_a_at) / Fold change /veh ZSCAN30 (11745921_a_at) / RFU CMKLR1 (11741424_a_at) / Fold change /veh CMKLR1 (11741424_a_at) / RFU LOC101060620 /// MAPK8IP1 (11723275_at) / Fold change /veh LOC101060620 /// MAPK8IP1 (11723275_at) / RFU SPTSSB (11747773_x_at) / Fold change /veh SPTSSB (11747773_x_at) / RFU PRSS12 (11739890_at) / Fold change /veh PRSS12 (11739890_at) / RFU BIN1 (11741810_x_at) / Fold change /veh BIN1 (11741810_x_at) / RFU WNT11 (11732464_a_at) / Fold change /veh WNT11 (11732464_a_at) / RFU C10orf10 (11716521_a_at) / Fold change /veh C10orf10 (11716521_a_at) / RFU C5orf56 (11738089_at) / Fold change /veh C5orf56 (11738089_at) / RFU CYB561 (11721691_x_at) / Fold change /veh CYB561 (11721691_x_at) / RFU ANKRD19P (11752326_a_at) / Fold change /veh ANKRD19P (11752326_a_at) / RFU OR2T12 /// OR2T33 /// OR2T8 (11738714_s_at) / Fold change /veh OR2T12 /// OR2T33 /// OR2T8 (11738714_s_at) / RFU VCAN (11748164_a_at) / Fold change /veh VCAN (11748164_a_at) / RFU JSRP1 (11732532_at) / Fold change /veh JSRP1 (11732532_at) / RFU KRTAP10-11 (11738290_x_at) / Fold change /veh KRTAP10-11 (11738290_x_at) / RFU MYO3A (11730013_a_at) / Fold change /veh MYO3A (11730013_a_at) / RFU EBF3 (11725865_a_at) / Fold change /veh EBF3 (11725865_a_at) / RFU CAMK2N1 (11719241_x_at) / Fold change /veh CAMK2N1 (11719241_x_at) / RFU C5orf56 (11738088_a_at) / Fold change /veh C5orf56 (11738088_a_at) / RFU OLFML3 (11715873_a_at) / Fold change /veh OLFML3 (11715873_a_at) / RFU LOC100653217 /// NTM (11731650_a_at) / Fold change /veh LOC100653217 /// NTM (11731650_a_at) / RFU MAPK11 (11762145_a_at) / Fold change /veh MAPK11 (11762145_a_at) / RFU FIZ1 (11724087_x_at) / Fold change /veh FIZ1 (11724087_x_at) / RFU OASL (11726364_x_at) / Fold change /veh OASL (11726364_x_at) / RFU SOX15 (11748057_x_at) / Fold change /veh SOX15 (11748057_x_at) / RFU CD79A (11719716_a_at) / Fold change /veh CD79A (11719716_a_at) / RFU HIST1H1D (11736915_at) / Fold change /veh HIST1H1D (11736915_at) / RFU CASKIN2 (11723855_a_at) / Fold change /veh CASKIN2 (11723855_a_at) / RFU LOC730098 (11760151_x_at) / Fold change /veh LOC730098 (11760151_x_at) / RFU OR4N2 (11742367_at) / Fold change /veh OR4N2 (11742367_at) / RFU PRRT2 (11749266_a_at) / Fold change /veh PRRT2 (11749266_a_at) / RFU SNX32 (11753110_a_at) / Fold change /veh SNX32 (11753110_a_at) / RFU CDHR5 (11726645_a_at) / Fold change /veh CDHR5 (11726645_a_at) / RFU RCAN1 (11760418_a_at) / Fold change /veh RCAN1 (11760418_a_at) / RFU FAM167A (11723789_a_at) / Fold change /veh FAM167A (11723789_a_at) / RFU FAM26E (11764081_at) / Fold change /veh FAM26E (11764081_at) / RFU ISYNA1 (11749810_s_at) / Fold change /veh ISYNA1 (11749810_s_at) / RFU ACY1 (11761880_at) / Fold change /veh ACY1 (11761880_at) / RFU 11764098_at / Fold change /veh 11764098_at / RFU SAMD14 (11745864_x_at) / Fold change /veh SAMD14 (11745864_x_at) / RFU NPB (11741838_a_at) / Fold change /veh NPB (11741838_a_at) / RFU TMPRSS6 (11731388_a_at) / Fold change /veh TMPRSS6 (11731388_a_at) / RFU KRTAP10-2 (11738614_at) / Fold change /veh KRTAP10-2 (11738614_at) / RFU ARHGAP8 /// PRR5-ARHGAP8 (11727945_x_at) / Fold change /veh ARHGAP8 /// PRR5-ARHGAP8 (11727945_x_at) / RFU KRTAP5-7 /// NADSYN1 (11734609_at) / Fold change /veh KRTAP5-7 /// NADSYN1 (11734609_at) / RFU RASL12 (11751679_a_at) / Fold change /veh RASL12 (11751679_a_at) / RFU CDKN2B (11736163_a_at) / Fold change /veh CDKN2B (11736163_a_at) / RFU PRF1 (11729649_at) / Fold change /veh PRF1 (11729649_at) / RFU, ZNF638 /// ZNF638-IT1 / Fold change vs veh, ZNF638 /// ZNF638-IT1 / RFU, PANK3 / Fold change vs veh, PANK3 / RFU, SH3YL1 / Fold change vs veh, SH3YL1 / RFU, ZEB2 / Fold change vs veh, ZEB2 / RFU, NRIP1 / Fold change vs veh, NRIP1 / RFU, PTTG1IP / Fold change vs veh, PTTG1IP / RFU, CAPN2 / Fold change vs veh, CAPN2 / RFU, MED14 / Fold change vs veh, MED14 / RFU, SNORA58 / Fold change vs veh, SNORA58 / RFU, C1orf63 / Fold change vs veh, C1orf63 / RFU, LRRFIP1 / Fold change vs veh, LRRFIP1 / RFU, NDUFAF7 / Fold change vs veh, NDUFAF7 / RFU, SLC12A2 / Fold change vs veh, SLC12A2 / RFU, IBTK / Fold change vs veh, IBTK / RFU, ESF1 / Fold change vs veh, ESF1 / Fold change vs veh, TMEM50B / RFU, TAOK1 / Fold change vs veh, TAOK1 / RFU, ACBD3 / Fold change vs veh, ACBD3 / RFU, TMA16 / Fold change vs veh, TMA16 / RFU, RWDD3 / Fold change vs veh, RWDD3 / RFU, BCAT1 / Fold change vs veh, BCAT1 / RFU, EDEM3 / Fold change vs veh, EDEM3 / RFU, TMEM33 / Fold change vs veh, TMEM33 / RFU, WDR75 / Fold change vs veh, WDR75 / RFU, AHCTF1 / Fold change vs veh, AHCTF1 / RFU, TFRC / Fold change vs veh, TFRC / RFU, ZDHHC17 / Fold change vs veh, ZDHHC17 / RFU, NOM1 / Fold change vs veh, NOM1 / RFU, ARL8B / Fold change vs veh, ARL8B / RFU, ZBTB11 / Fold change vs veh, ZBTB11 / RFU, TAMM41 / Fold change vs veh, TAMM41 / RFU, KIAA1704 /// LOC100996395 / Fold change vs veh, KIAA1704 /// LOC100996395 / RFU, ING1 / Fold change vs veh, ING1 / RFU, TRMT61B / Fold change vs veh, TRMT61B / RFU, FUBP3 / Fold change vs veh, FUBP3 / RFU, TP53 / Fold change vs veh, TP53 / RFU, TNKS2 / Fold change vs veh, TNKS2 / RFU, ZFP14 / Fold change vs veh, ZFP14 / RFU, ACTR2 / Fold change vs veh, ACTR2 / RFU, PPP3R1 / Fold change vs veh, PPP3R1 / RFU, PIK3R1 / Fold change vs veh, PIK3R1 / RFU, HNRNPA1 / Fold change vs veh, HNRNPA1 / RFU, RNF170 / Fold change vs veh, RNF170 / RFU, ZNF28 / Fold change vs veh, ZNF28 / RFU, RNGTT / Fold change vs veh, RNGTT / RFU, OGT / Fold change vs veh, OGT / RFU, BRD1 / Fold change vs veh, BRD1 / RFU, MARS / Fold change vs veh, MARS / RFU, ZNF655 / Fold change vs veh, ZNF655 / RFU, FAHD1 / Fold change vs veh, FAHD1 / RFU, BDP1 / Fold change vs veh, BDP1 / RFU, LRRCC1 / Fold change vs veh, LRRCC1 / RFU, ARID1A / Fold change vs veh, ARID1A / RFU, ZNF146 / Fold change vs veh, ZNF146 / RFU, ZNF330 / Fold change vs veh, ZNF330 / RFU, GPN3 / Fold change vs veh, GPN3 / RFU, C9orf123 / Fold change vs veh, C9orf123 / RFU, N4BP2L2 / Fold change vs veh, N4BP2L2 / RFU, ARFIP1 / Fold change vs veh, ARFIP1 / RFU, FAM179B / Fold change vs veh, FAM179B / RFU, BCL10 / Fold change vs veh, BCL10 / RFU, UHRF1BP1L / Fold change vs veh, UHRF1BP1L / RFU, BET1 / Fold change vs veh, BET1 / RFU, CNOT2 / Fold change vs veh, CNOT2 / RFU, ZNF268 / Fold change vs veh, ZNF268 / Fold change vs veh, ZNF507 / RFU, DGCR2 / Fold change vs veh, DGCR2 / RFU, WDSUB1 / Fold change vs veh, WDSUB1 / Fold change vs veh, HSP90B1 /// MIR3652 / RFU, ADSS / Fold change vs veh, ADSS / RFU, GK / Fold change vs veh, GK / RFU, ZNF148 / Fold change vs veh, ZNF148 / RFU, TAF9 / Fold change vs veh, TAF9 / RFU, SLC1A5 / Fold change vs veh, SLC1A5 / RFU, SLMO2 / Fold change vs veh, SLMO2 / RFU, ABCC4 / Fold change vs veh, ABCC4 / RFU, LOC101060439 /// RAP1B / Fold change vs veh, LOC101060439 /// RAP1B / RFU, RFX7 / Fold change vs veh, RFX7 / RFU, GTPBP10 / Fold change vs veh, GTPBP10 / RFU, CNEP1R1 / Fold change vs veh, CNEP1R1 / RFU, BIVM-ERCC5 /// ERCC5 / Fold change vs veh, BIVM-ERCC5 /// ERCC5 / RFU, ILF3 / Fold change vs veh, ILF3 / RFU 11762660_at / Fold change /veh 11762660_at / RFU VCAN (11757783_s_at) / Fold change /veh VCAN (11757783_s_at) / RFU DDX43 (11728927_at) / Fold change /veh DDX43 (11728927_at) / RFU KRT8 (11758188_x_at) / Fold change /veh KRT8 (11758188_x_at) / RFU NKD1 (11759106_at) / Fold change /veh NKD1 (11759106_at) / RFU SRD5A1 (11742802_a_at) / Fold change /veh SRD5A1 (11742802_a_at) / RFU TPSAB1 /// TPSB2 (11721975_s_at) / Fold change /veh TPSAB1 /// TPSB2 (11721975_s_at) / RFU GSTM3 (11746129_a_at) / Fold change /veh GSTM3 (11746129_a_at) / RFU IL23R (11737362_x_at) / Fold change /veh IL23R (11737362_x_at) / RFU TMEM51 (11727254_a_at) / Fold change /veh TMEM51 (11727254_a_at) / RFU PIWIL2 (11732686_x_at) / Fold change /veh PIWIL2 (11732686_x_at) / RFU ORM1 (11744905_x_at) / Fold change /veh ORM1 (11744905_x_at) / RFU CCDC152 (11743942_at) / Fold change /veh CCDC152 (11743942_at) / RFU ECM1 (11717891_a_at) / Fold change /veh ECM1 (11717891_a_at) / RFU IL23R (11748794_a_at) / Fold change /veh IL23R (11748794_a_at) / RFU TNFAIP8L3 (11732012_x_at) / Fold change /veh TNFAIP8L3 (11732012_x_at) / RFU MBOAT4 (11741988_at) / Fold change /veh MBOAT4 (11741988_at) / RFU 11764193_at / Fold change /veh 11764193_at / RFU TMEM53 (11763286_at) / Fold change /veh TMEM53 (11763286_at) / RFU MAGEB2 (11727129_at) / Fold change /veh MAGEB2 (11727129_at) / RFU TMEM200A (11744735_a_at) / Fold change /veh TMEM200A (11744735_a_at) / RFU CCDC152 (11751479_a_at) / Fold change /veh CCDC152 (11751479_a_at) / RFU FAM211A (11726209_a_at) / Fold change /veh FAM211A (11726209_a_at) / RFU RGS16 (11746705_a_at) / Fold change /veh RGS16 (11746705_a_at) / RFU VCAN (11755009_s_at) / Fold change /veh VCAN (11755009_s_at) / RFU RHOB (11743442_s_at) / Fold change /veh RHOB (11743442_s_at) / RFU RGS16 (11720943_a_at) / Fold change /veh RGS16 (11720943_a_at) / RFU RGS16 (11720944_at) / Fold change /veh RGS16 (11720944_at) / RFU, VPS4B / Fold change vs veh, VPS4B / RFU, CREB1 / Fold change vs veh, CREB1 / RFU, DNAJC13 / Fold change vs veh, DNAJC13 / RFU, GNAQ / Fold change vs veh, GNAQ / RFU, CDK5R1 / Fold change vs veh, CDK5R1 / RFU, ZRANB3 / Fold change vs veh, ZRANB3 / RFU, CUL4A / Fold change vs veh, CUL4A / RFU, CCNY / Fold change vs veh, CCNY / RFU, UFL1 / Fold change vs veh, UFL1 / RFU, COG3 / Fold change vs veh, COG3 / RFU, DIAPH2 / Fold change vs veh, DIAPH2 / RFU, SKA2 / Fold change vs veh, SKA2 / RFU, AFF3 / Fold change vs veh, AFF3 / RFU, LMF1 / Fold change vs veh, LMF1 / RFU, IPO11 / Fold change vs veh, IPO11 / RFU, DFFB / Fold change vs veh, DFFB / RFU, FOXP1 / Fold change vs veh, FOXP1 / RFU, CARD8 / Fold change vs veh, CARD8 / RFU, STRN3 / Fold change vs veh, STRN3 / RFU, ADK / Fold change vs veh, ADK / RFU, RASSF2 / Fold change vs veh, RASSF2 / RFU, WIPF1 / Fold change vs veh, WIPF1 / RFU, LARP1B / Fold change vs veh, LARP1B / RFU, RASA1 / Fold change vs veh, RASA1 / RFU, RB1 / Fold change vs veh, RB1 / RFU, PPFIA1 / Fold change vs veh, PPFIA1 / RFU, MAT2A / Fold change vs veh, MAT2A / RFU, CCT5 / Fold change vs veh, CCT5 / RFU, WDR92 / Fold change vs veh, WDR92 / RFU, CUX1 / Fold change vs veh, CUX1 / RFU, TTC7A / Fold change vs veh, TTC7A / RFU, TMEM135 / Fold change vs veh, TMEM135 / RFU, DEPTOR / Fold change vs veh, DEPTOR / RFU, CPM / Fold change vs veh, CPM / RFU, DNAJB6 / Fold change vs veh, DNAJB6 / RFU, CACNA2D3 / Fold change vs veh, CACNA2D3 / RFU, DTX4 / Fold change vs veh, DTX4 / RFU, TFCP2 / Fold change vs veh, TFCP2 / RFU, GMCL1 /// GMCL1P1 / Fold change vs veh, GMCL1 /// GMCL1P1 / RFU, AEBP2 / Fold change vs veh, AEBP2 / RFU, SNHG1 /// SNORD22 /// SNORD25 /// SNORD26 /// SNORD27 /// SNORD28 /// SNORD29 /// SNORD31 / Fold change vs veh, SNHG1 /// SNORD22 /// SNORD25 /// SNORD26 /// SNORD27 /// SNORD28 /// SNORD29 /// SNORD31 / Fold change (Aza/veh), C12orf56 (ProbeSet 11735607_a_at) / Fold change (ACY-1035/veh), C12orf56 (ProbeSet 11735607_a_at) / Fold change (Aza/veh), FGFR1OP (ProbeSet 11751329_s_at) / Fold change (ACY-1035/veh), FGFR1OP (ProbeSet 11751329_s_at) / Fold change (Aza/veh), VPS36 (ProbeSet 11739960_a_at) / Fold change (ACY-1035/veh), VPS36 (ProbeSet 11739960_a_at) / RFU SYPL1 (11715823_x_at) / Fold change /veh SYPL1 (11715823_x_at) / RFU IGFBP7 (11715501_s_at) / Fold change /veh IGFBP7 (11715501_s_at) / RFU REEP3 (11722064_at) / Fold change /veh REEP3 (11722064_at) / RFU IGLL1 (11728026_x_at) / Fold change /veh IGLL1 (11728026_x_at): dose or concentration left out as unconfirmed
Details: ProbeSet 11743362_s_at; LIST B

SMILES: Nc1ncn([C@@H]2O[C@H](CO)[C@@H](O)[C@H]2O)c(=O)n1 [azacitidine]
- Fold change vs veh, ADSS: 0.89
